{
  "source": "patent US20260123631A1",
  "about": "“NATURAL PORPHIN SALT AND USE THEREOF AS PLANT GROWTH REGULATOR AND PLANT IMMUNITY INDUCER” (NANJING BOSTEC BIOLOGICAL ENGINEERING CO., LTD, priority 2022, published 2026)",
  "key": {"chlorophyllase": {"target": "chlorophyllase", "assay": "In vitro chlorophyllase-inhibiting activity test", "format": "biochemical, mung bean", "settings": "substrate chlorophyll 120 ppm, sample 0.3 ppm to 30.0 ppm", "method": "A chlorophyllase inhibition rate of a salt sample solution at each concentration was determined, and an IC50 value for a chlorophyllase inhibition activity of a salt sample was calculated."}, "wheat": {"system": "wheat", "assay": "Germination of wheat and growth of seedlings", "format": "in vivo, wheat (Huaimai 35)", "settings": "for Root length / Root number / Root weight / Seedling height / Seedling weight: wheat seedlings", "method": "Method: 3 replicates were set for each treatment. 50 full seeds with a consistent size were selected each time for each sample, disinfected with sodium hypochlorite for 5 min, rinsed with clear water, and placed in a plastic box filled with 100 g of a sand. 25 mL of a prepared sample solution was poured into the plastic box, and the seeds were arranged regularly. The plastic box was covered with a lid, and then incubated in a 25° C. incubator. The germination was determined when a length of a sprout of a wheat seed exceeded a half of a diameter (long axis) of the wheat seed (determination criterion). According to the growth of wheat, the germ exposure of seeds and the number of germinated seeds were recorded every day. On day 6, 10 wheat seedlings were randomly selected, and a root length, a plant height, and a root number were determined. On day 7, a root weight and an aboveground part weight were determined. All index data was produced based on 3 replicates."}, "rice": {"system": "rice", "assay": "Rice yield in the sheath blight field experiment", "format": "in vivo, rice (Nanjing 9108)", "settings": "3.0 mg/mu sprayed 3 times", "method": "A test sample was dissolved, diluted, thoroughly stirred, and then applied, with an application area of 3 mu for each treatment. The harvesting was conducted on Nov. 8, 2021. On the eve of harvesting, the yield composition and structure were investigated. Then a yield per mu was measured."}, "[1]": {"assay": "Water solubility of the prepared salts", "format": "physicochemical"}, "mosaic virus": {"system": "mosaic virus", "assay": "Controlling diseases in tobacco by spraying", "format": "in vivo, tobacco (Yunyan 87)", "settings": "30 L/mu", "source_text": "For each treatment, 4 plots relatively scattered were selected from the field, with each plot of 50 m^2. An agent was sprayed twice around May 28 and June 4 during a root-spreading stage (12 leaves to 14 leaves) after tobacco transplanting, respectively. A same spraying volume (30 L/mu) was adopted for each treatment. During the spraying operation, each leaf surface should be sprayed evenly without dead corners left.\nOn July 15, tobacco plants in all treatment plots were surveyed. An incidence grading survey was conducted according to the Grade and investigation method of tobacco diseases and insect pests GB/T23222-2008, and an incidence rate and a disease index were counted for each treatment plot."}, "sheath blight in rice": {"system": "sheath blight in rice", "assay": "Field control of sheath blight in rice", "format": "in vivo, rice (Nanjing 9108)", "settings": "3.0 mg/mu sprayed 3 times (0.100, 0.067, 0.067 ppm)", "method": "A test sample was dissolved, diluted, thoroughly stirred, and then applied, with an application area of 3 mu for each treatment. Before harvesting, five-point sampling (20 m^2 per sampling point) was conducted for each treatment to determine the details of sheath blight in rice."}, "DTA/TG thermal analysis": {"assay": "DTA/TG thermal analysis", "format": "physicochemical", "settings": "nitrogen, 10° C./min, 25° C. to 500° C.", "method": "Test instrument: Shimadzu DTG-60 DTA-TG synchronous analyzer.\nTest samples: Sodium iron chlorin and iron chlorin.\nReference: Aluminum oxide.\nHeating rate: 10° C./min.\nHeating range: 25° C. to 500° C.\nSample weight: 4.3 mg to 4.5 mg.\nAnalysis software: ta60WS Ver. 2.11.\nResults were shown in FIG. 1, including a DTA comparison chart (the upper part in FIG. 1) and a TG comparison chart (the lower part in FIG. 1) for the samples."}},
  "data": [
    {"substance": "sodium iron chlorin [Example 21]", "values": [
      {"measurement": "IC50 for chlorophyllase inhibition activity", "setting": "chlorophyllase", "result": 5.22, "unit": "ppm"},
      {"measurement": "Germination rate of wheat", "setting": "wheat; 0.0025 ppm", "result": 94.0, "unit": "%"},
      {"measurement": "Root length", "setting": "wheat; 0.0025 ppm", "result": 9.30, "unit": "cm"},
      {"measurement": "Root number", "setting": "wheat; 0.0025 ppm", "result": 5.3},
      {"measurement": "Root weight", "setting": "wheat; 0.0025 ppm", "result": 0.0953, "unit": "g"},
      {"measurement": "Seedling height", "setting": "wheat; 0.0025 ppm", "result": 8.88, "unit": "cm"},
      {"measurement": "Seedling weight", "setting": "wheat; 0.0025 ppm", "result": 0.170, "unit": "g"},
      {"measurement": "Germination rate of wheat", "setting": "wheat; 0.0250 ppm", "result": 95.3, "unit": "%"},
      {"measurement": "Root length", "setting": "wheat; 0.0250 ppm", "result": 10.17, "unit": "cm"},
      {"measurement": "Root number", "setting": "wheat; 0.0250 ppm", "result": 5.2},
      {"measurement": "Root weight", "setting": "wheat; 0.0250 ppm", "result": 0.1027, "unit": "g"},
      {"measurement": "Seedling height", "setting": "wheat; 0.0250 ppm", "result": 9.13, "unit": "cm"},
      {"measurement": "Seedling weight", "setting": "wheat; 0.0250 ppm", "result": 0.178, "unit": "g"},
      {"measurement": "Germination rate of wheat", "setting": "wheat; 0.2500 ppm", "result": 93.3, "unit": "%"},
      {"measurement": "Root length", "setting": "wheat; 0.2500 ppm", "result": 9.64, "unit": "cm"},
      {"measurement": "Root number", "setting": "wheat; 0.2500 ppm", "result": 4.9},
      {"measurement": "Root weight", "setting": "wheat; 0.2500 ppm", "result": 0.0867, "unit": "g"},
      {"measurement": "Seedling height", "setting": "wheat; 0.2500 ppm", "result": 7.95, "unit": "cm"},
      {"measurement": "Seedling weight", "setting": "wheat; 0.2500 ppm", "result": 0.145, "unit": "g"},
      {"measurement": "Ear number per mu", "setting": "rice", "result": "26.14 10,000"},
      {"measurement": "Filled grain number per ear", "setting": "rice", "result": 99.93},
      {"measurement": "Thousand-grain weight", "setting": "rice", "result": 27.00, "unit": "g"},
      {"measurement": "Yield", "setting": "rice", "result": 705.38, "unit": "kg/mu"},
      {"measurement": "Yield increase rate", "setting": "rice; versus clear water", "result": 11.46, "unit": "%"},
      {"measurement": "solubility in water", "setting": "[1]", "result": "easily soluble"},
      {"measurement": "Disease index", "setting": "mosaic virus; 0.05 ppm sprayed twice", "result": 8.94},
      {"measurement": "Relative control effect", "setting": "mosaic virus; 0.05 ppm sprayed twice", "result": 65.48, "unit": "%"},
      {"measurement": "Disease index", "setting": "mosaic virus; 0.10 ppm sprayed twice", "result": 8.77},
      {"measurement": "Relative control effect", "setting": "mosaic virus; 0.10 ppm sprayed twice", "result": 66.13, "unit": "%"},
      {"measurement": "Disease index", "setting": "mosaic virus; 0.20 ppm sprayed twice", "result": 8.15},
      {"measurement": "Relative control effect", "setting": "mosaic virus; 0.20 ppm sprayed twice", "result": 71.00, "unit": "%"},
      {"measurement": "Corrected control", "setting": "sheath blight in rice", "result": 45.16, "unit": "%"},
      {"measurement": "Disease index", "setting": "sheath blight in rice", "result": 21.61, "unit": "%"},
      {"measurement": "Diseased plant rate", "setting": "sheath blight in rice", "result": 10.4, "unit": "%"},
      {"measurement": "thermal stability compared with the acidic sample", "setting": "DTA/TG thermal analysis", "result": "significantly-stronger thermal stability"}
    ]}
  ]
}
